From patent publication US20150094294A1, “COMPOUNDS AND METHODS FOR TREATING MALARIA” (Cellceutix Corporation, priority 2012, published 2015)
Converted amounts (≈) assume the structure as drawn.

How the values were obtained:
Type in all cases: cell-based
in vitro = test: in vitro
[1] = Cytotoxicity against 3T3 cells; conditions: mouse, 3T3 cells; read-out: Cytotoxicity 3T3 EC50
[2] = test system: P. falciparum 3D7 (chloroquine-sensitive); test: Anti-malarial activity, P. falciparum 3D7 culture, 72 hour, DNA content by flow cytometry; conditions: Plasmodium falciparum, 3D7, 72 h, synchronized ring-stage parasites
Method: Numerous compounds were screened in cultures of the malaria parasite P. falciparum 3D7 (chloroquine-sensitive) and DD2 (chloroquine-resistant). The compounds were also screened for toxixcity against 3T3 cells, HepG2 cells, and in a hemolysis assay. In brief, P. falciparum parasites were cultured in RPMI 1640 (Invitrogen) supplemented with Albumax II (Invitrogen). For synchronization, schizont stage parasites were magnet purified using a SuperMACS™ II Cell Separation Unit (Miltenyi Biotech). For IC50 determinations, synchronized ring-stage parasites were plated at 0.5% parasitemia and 8% hematocrit in 96-well plates at a total volume of 50 μL. Serial dilutions of 2× concentration of the respective compound, ranging from 2.5 μM to 20 nM, were added to the wells to bring the total volume up to 100 μL and 4% hematocrit. Compounds were assayed for a 72 hour period, after which the cultures were fixed with a solution of 4% paraformaldehyde and 0.08% glutaraldhyde in PBS. The cells were then permeabilized with 0.25% Triton X-100, and SYTOX Green Nucleic Acid Stain (Invitrogen) in PBS was added to a final concentration of 5 μM. DNA content, as an indicator of parasitemia, was analyzed on an Accuri C6 Flow Cytometer with C-Sampler. IC50 curves were generated using GraphPad Prism (GraphPad Software).

[3] = Cytotoxicity against HepG2 cells; conditions: human, HepG2 cells; read-out: Cytotoxicity HepG2 EC50

EC50 (in vitro) [µg/mL]	IC50 [2] [µM]	SMILES	EC50 [1] [µM]	EC50 [3] [µM]
52 (≈ 109 µM)	> 0.1	c1cc(-c2ccc(N3CCNCC3)nc2)cc(-c2cccc(-c3ccc(N4CCNCC4)nc3)c2)c1 [Compound 319]	57	83
> 1000	0.187	O=C(Nc1ccc(O[C@@H]2CCNC2)cc1)c1cncc(C(=O)Nc2ccc(O[C@@H]3CCNC3)cc2)c1 [Compound 194]	> 1000	> 1000
164 (≈ 356 µM)	0.03	O=C(Nc1ccc(OC2CNC2)cc1)c1cc(C(=O)Nc2ccc(OC3CNC3)cc2)ncn1 [Compound 196]	> 1000	940
65 (≈ 114 µM)	1.11	COc1cc(SCCN)c(C(F)(F)F)cc1NC(=O)Nc1ccc(SCCNC(=N)N)c(C(F)(F)F)c1 [Compound 276]	42	154
317 (≈ 657 µM)	0.108	N=C(N)NCCSc1ccc(NC(=O)Nc2cccc(CCNC(=N)N)c2)cc1C(F)(F)F [Compound 270]	398	702
88 (≈ 135 µM)	0.103	CN1CC[C@@H](Oc2ccc(NC(=O)c3cc(C(=O)Nc4ccc(O[C@@H]5CCN(C)C5)c(C(F)(F)F)c4)ncn3)cc2C(F)(F)F)C1 [Compound 204]	477	483
793 (≈ 792 µM)	> 0.1	NCCSc1c(NC(=O)c2cccc(Br)c2)cc(C(F)(F)F)cc1NC(=O)c1cc(C(=O)Nc2cc(C(F)(F)F)cc(NC(=O)c3cccc(Br)c3)c2SCCN)ncn1 [Compound 306]	814	814
12 (≈ 29.7 µM)	0.004	c1cc(N2CCNCC2)ccc1-c1ccc(-c2ccc(N3CCNCC3)cc2)s1 [Compound 252]	> 1000	> 1000
6 (≈ 11.9 µM)	0.273	NCCCc1cccc(-c2cncc(-c3ccc(-c4cncc(-c5cccc(CCCN)c5)c4)s3)c2)c1 [Compound 232]	37	56
> 1000	0.078	Cn1c(-c2ccc(N3CCN(C(=N)N)CC3)cc2)cnc1-c1ccc(N2CCN(C(=N)N)CC2)cc1 [Compound 261]	> 1000	932
24 (≈ 44.1 µM)	0.004	NC1CCC(Oc2ccc(NC(=O)c3cc(C(=O)Nc4ccc(OC5CCC(N)CC5)cc4)ncn3)cc2)CC1 (stereo not shown) [Compound 200]	27	37
> 1000	0.045	O=C(Nc1ccc(O[C@@H]2CCNC2)cc1)c1ccnc(C(=O)Nc2ccc(O[C@@H]3CCNC3)cc2)c1 [Compound 195]	> 1000	> 1000
2 (≈ 3.4 µM)	0.737	N=C(N)NCCCc1cccc(-c2cncc(-c3ccc(-c4cncc(-c5cccc(CCCNC(=N)N)c5)c4)s3)c2)c1 [Compound 233]	61	88
> 1000	0.112	N=C(N)NCCCc1cccc(-c2cncc(-c3cccc(CCCNC(=N)N)c3)c2)c1 [Compound 132]	323	456
2 (≈ 2.62 µM)	> 0.1	N#Cc1ccc(C(=O)Nc2cc(C(F)(F)F)cc(NC(=O)c3cc(C(=O)Nc4cc(C(F)(F)F)cc(N)c4SCCN)ncn3)c2SCCN)cc1 [Compound 308]	22	34
> 1000	0.773	NCCCOc1cc(OCCCN)cc(-c2ccc3c(c2)c2cc(-c4cc(OCCCN)cc(OCCCN)c4)ccc2n3CCCN)c1 [Compound 279]	436	885
8 (≈ 16.4 µM)	0.107	N=C(N)N1CCN(c2ccc(-c3ccc(-c4ccc(N5CCN(C(=N)N)CC5)cc4)s3)cc2)CC1 [Compound 253]	419	606
757 (≈ 848 µM)	0.041	N#Cc1ccc(C(=O)Nc2cc(C(F)(F)F)cc(NC(=O)c3cc(C(=O)Nc4cc(C(F)(F)F)cc(NC(=O)c5ccc(C#N)cc5)c4SCCN)ncn3)c2SCCN)cc1 [Compound 307]	846	892
187 (≈ 383 µM)	0.014	O=C(Nc1ccc(O[C@@H]2CCNC2)cc1)c1cc(C(=O)Nc2ccc(O[C@@H]3CCNC3)cc2)ncn1 [Compound 197]	405	881
538 (≈ 1470 µM)	0.795	NCCC#Cc1cncc(-c2cccc(-c3cncc(C#CCCN)c3)c2)c1 [Compound 142]	229	594

EC50 (in vitro) [µg/mL]	IC50 [2] [µM]	SMILES	EC50 [1] [µM]	EC50 [3] [µM]
> 1000	0.602	N=C(N)NCCCOc1cc(OCCCNC(=N)N)c(-c2ccncc2)cc1-c1ccncc1 [Compound 140]	> 1450	> 1450
28 (≈ 72.1 µM)	0.152	c1cc(N2CCNCC2)ccc1-c1ccc(-c2ccc(N3CCNCC3)cc2)o1 [Compound 255]	29	45
251 (≈ 292 µM)	> 0.1	N#Cc1cccc(C(=O)Nc2cc(NC(=O)c3cc(C(=O)Nc4cc(NC(=O)c5cccc(C#N)c5)cc(C(F)(F)F)c4)c(OCCN)cc3OCCN)cc(C(F)(F)F)c2)c1 [Compound 299]	920	920
> 1000	0.045	O=C(Nc1ccc(O[C@@H]2CCNC2)cc1)c1cccc(C(=O)Nc2ccc(O[C@@H]3CCNC3)cc2)n1 [Compound 193]	> 1000	> 1000
36 (≈ 73.4 µM)	0.154	N=C(N)N1CCN(c2ccc(-c3ccc(-c4ccc(N5CCN(C(=N)N)CC5)nc4)s3)cn2)CC1 [Compound 254]	32	49
5 (≈ 6.76 µM)	0.383	COc1cc(SCCN)c(C(F)(F)F)cc1NC(=O)c1cc(C(=O)Nc2cc(C(F)(F)F)c(SCCN)cc2OC)nc(SCCN)n1 [Compound 183]	694	739
3 (≈ 3.56 µM)	0.069	NCCSc1c(NC(=O)c2ccccc2)cc(C(F)(F)F)cc1NC(=O)c1cc(C(=O)Nc2cc(C(F)(F)F)cc(NC(=O)c3ccccc3)c2SCCN)ncn1 [Compound 304]	934	934
> 1000	0.126	N=C(N)NCCc1cccc(-c2cncc(-c3cccc(CCNC(=N)N)c3)c2)c1 [Compound 134]	654	905
9 (≈ 15.1 µM)	0.258	NCc1ccc(C(F)(F)F)c(Oc2ccc(S(=O)(=O)c3ccc(Oc4cc(CN)ccc4C(F)(F)F)cc3)cc2)c1 [Compound 156]	25	50
116 (≈ 239 µM)	0.0771	N=C(N)N1CCN(c2ccc(-c3cc(-c4ccc(N5CCN(C(=N)N)CC5)cc4)ncn3)cc2)CC1 [Compound 153]	311	453
> 1000	0.179	N#Cc1cc(NC(=O)c2cc(C(=O)Nc3ccc(O[C@@H]4CCNC4)c(C#N)c3)ncn2)ccc1O[C@@H]1CCNC1 [Compound 206]	> 1000	> 1000
62 (≈ 86.3 µM)	0.034	CC(=O)Nc1cc(C(F)(F)F)cc(NC(=O)c2cc(C(=O)Nc3cc(C(F)(F)F)cc(NC(C)=O)c3SCCN)ncn2)c1SCCN [Compound 303]	887	> 1000
63 (≈ 123 µM)	0.641	NCCCOc1cccc(-n2cc(-c3cccc(-c4cn(-c5cccc(OCCCN)c5)nn4)c3)nn2)c1 [Compound 180]	40	78
> 1000	> 0.1	c1cc(N2CCNCC2)ccc1-c1ccc(N2CCNCC2)cc1 [Compound 317]	553	500
29 (≈ 59.4 µM)	0.182	O=C(Nc1ccc(O[C@H]2CCNC2)cc1)c1cc(C(=O)Nc2ccc(O[C@H]3CCNC3)cc2)ncn1 [Compound 207]	478	819
352 (≈ 879 µM)	0.473	c1nc(-c2ccc(N3CCNCC3)cc2)cc(-c2ccc(N3CCNCC3)cc2)n1 [Compound 154]	210	471
66 (≈ 97.5 µM)	0.085	CC(=O)Nc1cc(C(F)(F)F)cc(NC(=O)c2cc(C(=O)Nc3cc(C(F)(F)F)cc(N)c3SCCN)ncn2)c1SCCN [Compound 203]	15	45
> 1000	> 0.1	c1cc(-c2ccc(N3CCNCC3)nc2)cc(-c2ccc(N3CCNCC3)nc2)c1 [Compound 257]	40	220
287 (≈ 713 µM)	> 0.1	Cn1c(-c2ccc(N3CCNCC3)cc2)cnc1-c1ccc(N2CCNCC2)cc1 [Compound 259]	> 1000	> 1000
> 1000	0.08	N=C(N)NCCc1cccc(-c2cc(-c3cccc(CCNC(=N)N)c3)ncn2)c1 [Compound 221]	> 1000	> 1000
